Source: the NIST ThermoML archive (doi:10.1016/j.jct.2011.12.025)
Numbers after ± are expanded uncertainties.

Assay: xn = mol fraction of the nth substance listed
Details: 296.15 K, 101 kPa, Liquid, WTW LF538 Conductivity Meter

With `CCCCCCCC[n+]1ccn(C)c1.F[B-](F)(F)F` [1-methyl-3-octylimidazolium tetrafluoroborate] + O the electrical conductivity (x1 = 0.000109) was 0.067 ± 0.002 S/m, the electrical conductivity (x1 = 0.000164) was 0.095 ± 0.002 S/m and the electrical conductivity (x1 = 0.000219) was 0.123 ± 0.002 S/m. It also gave an electrical conductivity (x1 = 0.000274) of 0.149 ± 0.002 S/m, an electrical conductivity (x1 = 0.000326) of 0.172 ± 0.002 S/m and an electrical conductivity (x1 = 0.000384) of 0.196 ± 0.003 S/m. The electrical conductivity (x1 = 0.000439) was 0.22 ± 0.003 S/m, the electrical conductivity (x1 = 0.000494) was 0.24 ± 0.003 S/m and the electrical conductivity (x1 = 0.000549) was 0.262 ± 0.003 S/m. It also gave an electrical conductivity (x1 = 0.000605) of 0.284 ± 0.003 S/m, an electrical conductivity (x1 = 0.00066) of 0.305 ± 0.003 S/m and an electrical conductivity (x1 = 0.000715) of 0.326 ± 0.004 S/m. For the same compound, the electrical conductivity (x1 = 0.000772) was 0.346 ± 0.004 S/m, the electrical conductivity (x1 = 0.000883) was 0.386 ± 0.004 S/m and the electrical conductivity (x1 = 0.000995) was 0.424 ± 0.004 S/m. The electrical conductivity (x1 = 0.001107) was 0.463 ± 0.005 S/m.

For `CCCCCCn1cc[n+](C)c1.F[B-](F)(F)F` [1-hexyl-3-methylimidazolium tetrafluoroborate] + O, the electrical conductivity (x1 = 0.000466) was 0.231 ± 0.003 S/m, the electrical conductivity (x1 = 0.000711) was 0.329 ± 0.004 S/m and the electrical conductivity (x1 = 0.000949) was 0.419 ± 0.004 S/m. The electrical conductivity (x1 = 0.001193) was 0.505 ± 0.005 S/m, the electrical conductivity (x1 = 0.001435) was 0.584 ± 0.006 S/m and the electrical conductivity (x1 = 0.001677) was 0.663 ± 0.007 S/m. The electrical conductivity (x1 = 0.001925) was 0.74 ± 0.008 S/m, the electrical conductivity (x1 = 0.002172) was 0.812 ± 0.008 S/m and the electrical conductivity (x1 = 0.002421) was 0.875 ± 0.009 S/m. It also gave an electrical conductivity (x1 = 0.002671) of 0.949 ± 0.01 S/m, an electrical conductivity (x1 = 0.002925) of 1.014 ± 0.01 S/m and an electrical conductivity (x1 = 0.003177) of 1.07 ± 0.011 S/m. The electrical conductivity (x1 = 0.003433) was 1.126 ± 0.011 S/m, the electrical conductivity (x1 = 0.003948) was 1.25 ± 0.013 S/m and the electrical conductivity (x1 = 0.004469) was 1.36 ± 0.014 S/m. The electrical conductivity (x1 = 0.005) was 1.447 ± 0.014 S/m.

Compound `CCCCCCCCCCn1cc[n+](C)c1.F[B-](F)(F)F` [1-decyl-3-methylimidazolium tetrafluoroborate] + O has an electrical conductivity (x1 = 2.5e-05) of 0.018 ± 0.003 S/m, an electrical conductivity (x1 = 3.8e-05) of 0.026 ± 0.003 S/m and an electrical conductivity (x1 = 5.1e-05) of 0.034 ± 0.003 S/m. It also gave an electrical conductivity (x1 = 6.4e-05) of 0.042 ± 0.002 S/m, an electrical conductivity (x1 = 7.6e-05) of 0.049 ± 0.002 S/m and an electrical conductivity (x1 = 8.9e-05) of 0.056 ± 0.002 S/m. The electrical conductivity (x1 = 0.000102) was 0.063 ± 0.002 S/m, the electrical conductivity (x1 = 0.000115) was 0.07 ± 0.002 S/m and the electrical conductivity (x1 = 0.000128) was 0.076 ± 0.002 S/m. The electrical conductivity (x1 = 0.000139) was 0.082 ± 0.002 S/m, the electrical conductivity (x1 = 0.000153) was 0.089 ± 0.002 S/m and the electrical conductivity (x1 = 0.000166) was 0.096 ± 0.002 S/m. For the same compound, the electrical conductivity (x1 = 0.000179) was 0.101 ± 0.002 S/m, the electrical conductivity (x1 = 0.000204) was 0.113 ± 0.002 S/m and the electrical conductivity (x1 = 0.00023) was 0.125 ± 0.002 S/m. It also gave an electrical conductivity (x1 = 0.000256) of 0.137 ± 0.002 S/m.
